US6858591B2, “Antibiotic AA 896 analogs” (Wyeth Holdings Corporation, priority 2001, dated 2005)
Values after ≈ are worked out from the molar mass of the structure shown. Where two headings read alike, the source gives them in different places.

What was measured:
Assay in all cases: In vitro MIC, broth dilution
Format in all cases: cell-based
E. cloacae GC 3783 = conditions: Enterobacter cloacae, GC3783
E. faecalis GC 2242 = conditions: Enterococcus faecalis, GC2242
Procedure, shortened: (§1)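 NCCLS broth dilution; Mueller-Hinton II; 5×10^5 CFU/ml; 64-0.06 μg/ml; 18 h, 35 °C, ambient air; MIC read as lowest growth-inhibiting concentration.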

CNS GC 4537 = test system: CNS GC 4537
Procedure, shortened: as §1

E. faecalis GC 842 = conditions: Enterococcus faecalis, GC842
Procedure, shortened: as §1

S. aureus GC 1131 = conditions: Staphylococcus aureus, GC1131
Procedure, shortened: as §1

CNS GC 4538 = test system: CNS GC 4538
Procedure, shortened: as §1

E. faecalis GC 4555 = conditions: Enterococcus faecalis, GC4555
Procedure, shortened: as §1

S. aureus GC 2216 = conditions: Staphylococcus aureus, GC2216
Procedure, shortened: as §1

S. aureus GC 4536 = conditions: Staphylococcus aureus, GC4536
Procedure, shortened: as §1

CNS GC 4547 = test system: CNS GC 4547
Procedure, shortened: as §1

M. morganii GC 4531 = conditions: Morganella morganii, GC4531
K. pneumoniae GC 4534 = conditions: Klebsiella pneumoniae, GC4534
E. coli GC 2203 = conditions: Escherichia coli, GC2203
P. aeruginosa GC 4532 = conditions: Pseudomonas aeruginosa, GC4532
E. coli GC 3226 = conditions: Escherichia coli, GC3226
E. coli GC 4559 = conditions: Escherichia coli, GC4559
P. aeruginosa GC 2214 = conditions: Pseudomonas aeruginosa, GC2214
E. coli GC 4560 = conditions: Escherichia coli, GC4560
S. marcescens GC 4077 = conditions: Serratia marcescens, GC4077
C. albicans GC 3066 = conditions: Candida albicans, GC3066
[1] = E. cloacae GC 3783, read-out: MIC
[2] = E. faecalis GC 2242, read-out: MIC
[3] = E. faecalis GC 842, read-out: MIC
[4] = S. aureus GC 1131, read-out: MIC
[5] = E. faecalis GC 4555, read-out: MIC
[6] = S. aureus GC 2216, read-out: MIC
[7] = S. aureus GC 4536, read-out: MIC
[8] = M. morganii GC 4531, read-out: MIC
[9] = K. pneumoniae GC 4534, read-out: MIC
[10] = P. aeruginosa GC 4532, read-out: MIC
[11] = P. aeruginosa GC 2214, read-out: MIC
[12] = S. marcescens GC 4077, read-out: MIC
[13] = C. albicans GC 3066, read-out: MIC

| SMILES | MIC (E. cloacae GC 3783; [1]) [µg/mL] | MIC (E. faecalis GC 2242; [2]) [µg/mL] | MIC (CNS GC 4537; CNS GC 4537, read-out: MIC) [µg/mL] | MIC (E. faecalis GC 842; [3]) [µg/mL] | MIC (S. aureus GC 1131; [4]) [µg/mL] | MIC (CNS GC 4538; CNS GC 4538, read-out: MIC) [µg/mL] | MIC (E. faecalis GC 4555; [5]) [µg/mL] | MIC (S. aureus GC 2216; [6]) [µg/mL] | MIC (S. aureus GC 4536; [7]) [µg/mL] | MIC (CNS GC 4547; CNS GC 4547, read-out: MIC) [µg/mL] | MIC (M. morganii GC 4531; [8]) [µg/mL] | MIC (K. pneumoniae GC 4534; [9]) [µg/mL] | MIC (E. coli GC 2203; E. coli GC 2203, read-out: MIC) [µg/mL] | MIC (P. aeruginosa GC 4532; [10]) [µg/mL] | MIC (E. coli GC 3226; E. coli GC 3226, read-out: MIC) [µg/mL] | MIC (E. coli GC 4559; E. coli GC 4559, read-out: MIC) [µg/mL] | MIC (P. aeruginosa GC 2214; [11]) [µg/mL] | MIC (E. coli GC 4560; E. coli GC 4560, read-out: MIC) [µg/mL] | MIC (S. marcescens GC 4077; [12]) [µg/mL] | MIC (C. albicans GC 3066; [13]) [µg/mL] | other results |
| --- | --- | --- | --- | --- | --- | --- | --- | --- | --- | --- | --- | --- | --- | --- | --- | --- | --- | --- | --- | --- | --- |
| COc1ccc(Cn2c(=O)ccn([C@@H]3OC([C@H](O)[C@H](NCCCNC(=O)C(NC(=O)[C@H](CCCNC(=N)N[N+](=O)[O-])NC(=O)N[C@H](C(=O)OCc4ccccc4)C(C)C)[C@@H](C)O)C(=O)OC(C)(C)C)[C@@H](O[Si](C)(C)C(C)(C)C)[C@H]3O[Si](C)(C)C(C)(C)C)c2=O)cc1 (stereo partly drawn) [Example 30, 1-Benzyl 17-(tert-butyl)(2S,6S,9S,16S)-16-[(R)-[(3R,4R,5R)-3,4-bis{[tert-butyl(dimethyl)silyl]oxy}-5-(3-(4-methoxybenzyl)-2,4-dioxo-3,4-dihydro-1(2H)-pyrimidinyl)tetrahydro-2-furanyl](hydroxy)methyl]-6-(3-{[(2,2-dioxido-2lambda˜1˜-diazanyl)(imino)methyl]amino}propyl)-9-[(1S)-1-hydroxyethyl]-2-isopropyl-4,7,10-trioxo-3,5,8,11,15-pentaazaheptadecane-1,17-dioate] |  |  |  |  |  |  |  |  |  |  |  |  |  |  |  |  |  |  |  |  | MIC (E. cloacae GC 3783): 128 µg/mL (≈ 97.4 µM); MIC (E. faecalis GC 2242): 64 µg/mL (≈ 48.7 µM); MIC (CNS GC 4537): 128 µg/mL (≈ 97.4 µM); MIC (E. faecalis GC 842): 128 µg/mL (≈ 97.4 µM); MIC (S. aureus GC 1131): 128 µg/mL (≈ 97.4 µM); MIC (CNS GC 4538): 128 µg/mL (≈ 97.4 µM); MIC (E. faecalis GC 4555): 64 µg/mL (≈ 48.7 µM); MIC (S. aureus GC 2216): 128 µg/mL (≈ 97.4 µM); MIC (S. aureus GC 4536): 128 µg/mL (≈ 97.4 µM); MIC (CNS GC 4547): 128 µg/mL (≈ 97.4 µM); MIC (M. morganii GC 4531): 128 µg/mL (≈ 97.4 µM); MIC (K. pneumoniae GC 4534): 128 µg/mL (≈ 97.4 µM); MIC (E. coli GC 2203): > 128 µg/mL; MIC (P. aeruginosa GC 4532): 64 µg/mL (≈ 48.7 µM); MIC (E. coli GC 3226): > 128 µg/mL; MIC (E. coli GC 4559): > 128 µg/mL; MIC (P. aeruginosa GC 2214): 64 µg/mL (≈ 48.7 µM); MIC (E. coli GC 4560): 64 µg/mL (≈ 48.7 µM); MIC (S. marcescens GC 4077): 128 µg/mL (≈ 97.4 µM); MIC (C. albicans GC 3066): 64 µg/mL (≈ 48.7 µM) |
| CCOC(=O)C(NCCCNC(=O)[C@@H](NC(=O)OCc1ccccc1)C(C)O)C(O)[C@H]1O[C@H](n2ccc(=O)[nH]c2=O)[C@H](OC(C)=O)[C@@H]1OC(C)=O (stereo partly drawn) [Example 31a, Ethyl (5S)-12-[(R)-[(2R,3R,4R,5S)-3,4-bis(acetyloxy)-5-(2,4-dioxo-3,4-dihydro-1(2H)-pyrimidinyl)tetrahydro-2-furanyl](hydroxy)methyl]-5-[(1S)-1-hydroxyethyl]-3,6-dioxo-1-phenyl-2-oxa-4,7,11-triazatridecan-13-oate] | 128 (≈ 177 µM) | 128 (≈ 177 µM) | > 128 | 128 (≈ 177 µM) | > 128 | > 128 | 128 (≈ 177 µM) | > 128 | > 128 | > 128 | 128 (≈ 177 µM) | 128 (≈ 177 µM) | 128 (≈ 177 µM) | 128 (≈ 177 µM) | 128 (≈ 177 µM) | > 128 | 128 (≈ 177 µM) | 128 (≈ 177 µM) | 128 (≈ 177 µM) | 128 (≈ 177 µM) |  |
| CCOC(=O)C(NCCCNC(=O)[C@@H](N)[C@H](C)O)[C@@H](O)[C@H]1O[C@H](n2ccc(=O)[nH]c2=O)[C@H](OC(C)=O)[C@@H]1OC(C)=O (stereo partly drawn) [Example 32, Ethyl (3R)-2-[(3-{[(2S,3S)-2-amino-3-hydroxybutanoyl]amino}propyl)amino]-3-[(2R,3R,4R,5S)-3,4-bis(acetyloxy)-5-(2,4-dioxo-3,4-dihydro-1(2H)-pyrimidinyl)tetrahydro-2-furanyl]-3-hydroxypropanoate] | > 128 | > 128 | > 128 | > 128 | > 128 | > 128 | > 128 | > 128 | > 128 | > 128 | > 128 | > 128 | > 128 | > 128 | > 128 | > 128 | > 128 | > 128 | > 128 | > 128 |  |
| CCOC(=O)C(NCCCNC(=O)[C@@H](N)[C@H](C)O)[C@@H](O)[C@H]1O[C@@H](n2ccc(=O)[nH]c2=O)[C@H](OC(C)=O)[C@@H]1OC(C)=O (stereo partly drawn) [Example 33, Ethyl (3R)-2-[(3-{[(2S,3S)-2-amino-3-hydroxybutanoyl]amino}propyl)amino]-3-[(2R,3R,4R,5R)-3,4-bis(acetyloxy)-5-(2,4-dioxo-3,4-dihydro-1(2H)-pyrimidinyl)tetrahydro-2-furanyl]-3-hydroxypropanoate] | > 128 | > 128 | > 128 | > 128 | > 128 | > 128 | > 128 | > 128 | > 128 | > 128 | > 128 | > 128 | > 128 | > 128 | > 128 | > 128 | > 128 | > 128 | > 128 | > 128 |  |
| CCOC(=O)C(NCCCNC(=O)[C@@H](NC(=O)[C@H](CCCNC(=N)N[N+](=O)O)NC(=O)N[C@H](C(=O)OCc1ccccc1)C(C)C)C(C)O)C(O)[C@H]1O[C@H](n2ccc(=O)[nH]c2=O)[C@H](OC(C)=O)[C@@H]1OC(C)=O (stereo partly drawn) [Example 34, 16-Benzyl 2-ethyl (1R,9S,12S,16S)-1-[(2R,3R,4R,5S)-3,4-bis(acetyloxy)-5-(2,4-dioxo-3,4-dihydro-1(2H)-pyrimidinyl)tetrahydro-2-furanyl]-12-(3-{[(2,2-dioxido-2lambda˜1˜-diazanyl)(imino)methyl]amino}propyl)-1-hydroxy-9-[(1S)-1-hydroxyethyl]-17-methyl-8,11,14-trioxo-3,7,10,13,15-pentaazaoctadecane-2,16-dicarboxylate] | > 128 | 128 |  | > 128 | > 128 |  | > 128 | > 128 | > 128 |  | > 128 | > 128 | > 128 | 128 | > 128 | > 128 | 128 | > 128 | > 128 | 128 | MIC (CNS GC 4537): > 128 µg/mL; MIC (CNS GC 4538): > 128 µg/mL; MIC (CNS GC 4547): > 128 µg/mL |
